Test results reported in publication doi:10.1101/2022.05.04.490172v1 (biorxiv, 2022).

Legend:
[1] = system: BRN2 (POU3F2), luciferase reporter assay; assay: cells; details: for % of Inhibition (Luciferase assay) / 10µM / % of Inhibition (Luciferase assay) / 30µM: inhibitor; for inhibition at 10 µM: read-out: % of Inhibition (Luciferase assay) / 10µM; for inhibition at 30 µM: read-out: % of Inhibition (Luciferase assay) / 30µM
[2] = biological target: T1, BRN2 (POU3F2), purified BRN2^WT (Homo sapiens, UniProt P20265); assay: microscale thermophoresis; assay type: binding
T1 sequence (P20265 264-415): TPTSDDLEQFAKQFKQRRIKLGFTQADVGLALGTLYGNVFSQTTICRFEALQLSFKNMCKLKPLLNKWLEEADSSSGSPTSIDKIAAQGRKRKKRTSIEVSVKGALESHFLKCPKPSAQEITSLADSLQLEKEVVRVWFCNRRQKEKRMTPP

SMILES	% of Inhibition (Luciferase assay) / 10µM [1]	% of Inhibition (Luciferase assay) / 30µM [1]	inhibition at 10 µM [1]	inhibition at 30 µM [1]	Kd [2]
O=C(Nc1cc(Cl)cc(Cl)c1)c1ccccc1 [B-13]	-8.507%	43.29%	–	–	–
Oc1ccc(/C=N/Nc2nc3ccccc3[nH]2)c(O)c1O [B-43]	–	–	12.5%	-1.16%	–
Cn1c(-c2ccc(CO)o2)nc2ccccc21 [B-56]	–	–	-114%	-134%	–
Brc1ccc(-c2ccc(-c3nc4ccccc4[nH]3)o2)c(Br)c1 [B-69]	–	–	90%	94%	–
C/C(=N/Nc1nc2ccccc2[nH]1)c1ccccc1Cl [B-41]	–	–	18.8%	74.1%	–
COc1ccc(CNc2ccc(C)cc2)c2ccccc12 [B-2]	–	–	19.6%	24.4%	–
c1ccc2c(c1)CCC/C2=N\Nc1nc2ccccc2[nH]1 [B-32]	–	–	32.4%	77.2%	–
CC/C(=N\Nc1nc2ccccc2[nH]1)c1ccc(F)cc1 [B-34]	–	–	33.1%	80%	–
COc1ccc(CNc2ccccc2)c2ccccc12 [B-17]	–	–	3.97%	12.2%	–
Oc1ccc(Br)cc1/C=N/Nc1nc2ccccc2[nH]1 [B-52]	–	–	27.1%	21.3%	–
Oc1ccccc1/C=N\Nc1nc2ccccc2[nH]1 [B-3]	–	–	69.2%	75.5%	–
C/C(=N/Nc1nc2ccccc2[nH]1)c1ccccc1O [B-42]	–	–	-3.59%	66.8%	–
O=C(Nc1cc(Cl)cc(Cl)c1)c1ccccc1 [B-10]	-70.87%	68.05%	–	–	–
Oc1ccccc1/C=N/Nc1nc2ccccc2[nH]1 [B-21]	–	–	-1.45%	24.8%	–
C[C@@H]1Cc2ccccc2N1C(=O)c1cccc2ccccc12 [B-20]	–	–	15.7%	35.5%	–
Cc1ccc(NCc2c[nH]c3ccccc23)cc1 [B-19]	–	–	-4.93%	62%	–
CC/C(=N/Nc1nc2ccccc2[nH]1)c1cccc(Cl)c1 [B-37]	–	–	19.1%	80.2%	–
C/C(=N\Nc1nc2ccccc2[nH]1)c1ccccc1 [B-58]	–	–	–	-58%	–
Cc1ccc(-c2nc3ccccc3n2C)o1 [B-55]	–	–	-120%	-88.1%	–
Cc1cccc(C(=O)Oc2cccc3ccccc23)c1 [B-12]	–	–	5.02%	-8.87%	–
Oc1c(Br)cc(Br)cc1/C=N/Nc1nc2ccccc2[nH]1 [B-53]	–	–	-127%	-80.2%	–
Cc1ccccc1/C=N/Nc1nc2ccccc2[nH]1 [B-47]	–	–	-2.99%	36.5%	–
C/C(=N\Nc1nc2ccccc2[nH]1)c1ccc2ccccc2c1O [B-45]	–	–	77.2%	91.8%	–
C/C(=N/Nc1nc2ccccc2[nH]1)c1ccc(C)cc1 [B-38]	–	–	25.9%	74.3%	–

SMILES	% of Inhibition (Luciferase assay) / 10µM [1]	% of Inhibition (Luciferase assay) / 30µM [1]	inhibition at 10 µM [1]	inhibition at 30 µM [1]	Kd [2]
c1ccc(-c2ccc(N3CCOCC3)s2)cc1 [B-25]	–	–	-2.68%	51.5%	–
Cn1c(-c2ccco2)nc2cc(N)ccc21 [B-64]	–	–	19%	39%	–
c1ccc(-c2nc(-c3cccnc3)no2)cc1 [B-27]	–	–	–	-166%	–
c1ccc(-c2csc(-c3ccccn3)n2)cc1 [B-24]	–	–	-145%	-67.1%	–
O=C1c2ccccc2C(=O)N1c1nc(-c2ccccc2)cs1 [B-22]	–	–	-129%	-138%	–
c1ccc(-c2ccc(-c3nc4ccccc4[nH]3)o2)cc1 [B-66]	–	–	11%	48%	–
Oc1ccc(Cl)cc1/C=N/Nc1nc2ccccc2[nH]1 [B-30]	–	–	-6.38%	28.1%	–
Oc1ccc(/C=N/Nc2nc3ccccc3[nH]2)c(O)c1 [B-49]	–	–	46.1%	70.8%	–
Cc1ccc(-c2noc(-c3ccncc3)n2)cc1 [B-26]	–	–	-147%	-38.9%	–
c1ccc2c(c1)C(=NNc1nc3ccccc3[nH]1)c1ccccc1-2 [B-40]	–	–	93.2%	98.8%	–
C/C(=N\Nc1nc2ccccc2[nH]1)c1ccc(O)cc1 [B-46]	–	–	6.41%	46.7%	–
O=C(CSc1nc2ccccc2[nH]1)c1ccccc1 [B-15]	–	–	-5%	9.16%	–
O=C(Nc1ccc(F)cc1)c1ccccc1 [B-9]	–	–	-61.5%	-58.1%	–
Clc1ccccc1-c1ccc(-c2nc3ccccc3[nH]2)o1 [B-68]	–	–	54.9%	94.4%	–
c1ccc([C@H]2COC(c3cccs3)=N2)cc1 [B-23]	–	–	-121%	-147%	–
Oc1ccc(/C=N/Nc2nc3ccccc3[nH]2)cc1O [B-44]	–	–	0.0894%	66.2%	–
c1ccc2c(c1)CC/C2=N/Nc1ccc2ccccc2n1 [B-39]	–	–	99.1%	99.9%	–
COc1ccc(/C=N\Nc2nc3ccccc3[nH]2)cc1O [B-65]	–	–	31%	51%	–
O=C(Oc1cccc(F)c1)c1cccc2ccccc12 [B-6]	–	–	-6.6%	-58%	–
Cn1c(-c2ccco2)nc2ccccc21 [B-57]	–	–	-138%	-172%	–
Fc1ccc(Cl)cc1/C=N/Nc1nc2ccccc2s1 [B-4]	–	–	19.5%	71.4%	–
COc1ccccc1/C=N\Nc1nc2ccccc2[nH]1 [B-61]	–	–	-172%	-70.4%	–
Oc1cccc(/C=N/Nc2nc3ccccc3[nH]2)c1O [B-59]	–	–	–	-145%	–
O=C(CSc1nc2ccccc2[nH]1)c1ccc(Cl)cc1 [B-16]	–	–	20.8%	44.7%	–

SMILES	% of Inhibition (Luciferase assay) / 10µM [1]	% of Inhibition (Luciferase assay) / 30µM [1]	inhibition at 10 µM [1]	inhibition at 30 µM [1]	Kd [2]
c1cc(-c2noc(C3CCCCC3)n2)ccn1 [B-28]	–	–	-139%	-180%	–
Cc1cc(C(=O)Nc2cccc(Cl)c2)c2cc(F)ccc2n1 [B-14]	–	–	41.6%	32%	–
Cn1c(-c2ccc(-c3ccccc3)o2)nc2ccccc21 [B18]	–	–	97.6%	99.4%	–
Oc1cccc(/C=N/Nc2nc3ccccc3[nH]2)c1 [B-54]	–	–	-45.1%	-34.4%	–
Cc1cc(C(=O)Nc2ccccc2)c2ccccc2n1 [B-1]	–	–	14.6%	1.27%	–
Oc1c(Cl)cc(Cl)cc1/C=N/Nc1nc2ccccc2[nH]1 [B-31]	–	–	22.6%	12.7%	–
Oc1ccc(/C=N/Nc2nc3ccccc3[nH]2)cc1 [B-50]	–	–	66.3%	72.1%	–
c1ccc(NCc2csc3ccccc23)cc1 [B-11]	–	–	-24.8%	-22.7%	–
Clc1ccc(-c2ccc(-c3nc4ccccc4[nH]3)o2)cc1Cl [B-67]	–	–	-99.2%	74%	–
Cc1ccc(-c2nc3cc(N)ccc3n2C)o1 [B-63]	–	–	22%	44%	–
Cn1c(N/N=C2/CCc3c(O)cccc32)nc2ccccc21 [B-36]	–	–	-39.4%	28.6%	–
Cc1cc(C(=O)Nc2cc(F)ccc2C)c2ccccc2n1 [B-5]	–	–	4.75%	9.07%	–
Clc1cccc(-c2ccc(-c3nc4cc(Cl)ccc4[nH]3)o2)c1 [B-72]	–	–	-50.2%	87.1%	–
Cc1ccccc1/C=N\Nc1nc2ccccc2[nH]1 [B-60]	–	–	-23.8%	25.5%	–
COc1ccc(O)c(/C=N/Nc2nc3ccccc3[nH]2)c1 [B-29]	–	–	-44.2%	22.8%	–
Clc1ccc(Cl)c(-c2ccc(-c3nc4ccccc4[nH]3)o2)c1 [B-71]	–	–	46.2%	–	–
Cc1cc(C)c2c(c1)/C(=N/Nc1nc3ccccc3[nH]1)CCC2 [B-33]	–	–	21.6%	84.3%	–
CC/C(=N\Nc1nc2ccccc2[nH]1)c1ccc(O)cc1 [B-35]	–	–	0.336%	50.1%	–
C/C(=N/Nc1nc2ccccc2[nH]1)c1ccc(F)cc1 [B-48]	–	–	-46.2%	-6.79%	–
Oc1ccc2ccccc2c1/C=N/Nc1nc2ccccc2[nH]1 [B-51]	–	–	-12.8%	76.8%	–
Clc1cc(Br)ccc1-c1ccc(-c2nc3ccccc3[nH]2)o1 [B-70]	–	–	88.1%	91.7%	–
Clc1ccc2cc(-c3csc(-c4ccc[nH]4)n3)oc2c1 [B18-94]	–	–	–	–	2040 nM
Oc1ccc(/C=N\Nc2nc3ccccc3[nH]2)cc1Cl [B-62]	–	–	88.2%	91.6%	–
